PMC9881724, “Rational design of potent ultrashort antimicrobial peptides with programmable assembly into nanostructured hydrogels” (Frontiers in Chemistry, 2023)
Values after ≈ are worked out from the molar mass of the structure shown. Where two headings read alike, the source gives them in different places. Values belong to the compound of their own block, whether it stands above or below them. Residues, ends and D or L forms follow the SMILES beside them. No end group written: not given here. *: point of attachment. Fmoc = O=C(OCC1c2ccccc2-c2ccccc21)*

What was measured:
[1] = tested on: Candida albicans ATCC 10231; assay type: cell-based
Description: (§1) Indolicidin (sequence: ILPWKWPWWPWRR-NH2, molecular weight: 1,906.3 g/mol) and FMOC-WWRR-NH2 (molecular weight: 924.1) were obtained from ChemPep (USA) as lyophilized powder and acetate salts with a purity >95%. Ethanol and Congo red were purchased from Sigma-Aldrich (Australia). Sodium chloride was purchased from Alfa Aesar (United Kingdom). The negative staining agent phosphotungstic acid was purchased from Proscitech (Australia). A Milipore filter system was utilized to obtain Milli-Q water. BD Difco Mueller Hinton Broth (MHB) and Sabouraud broth (SB) were purchased from Cell biosciences (Australia). Strains: E. coli NCTC 10418, P. aeruginosa ATCC 9721, E. faecalis ATCC 19433, S. aureus ATCC 25923, S. aureus ATCC BAA-1756 (methicillin resistant), Streptococcus pneumoniae ATCC 49619, Candida albicans ATCC 10231 and Candida auris DSM 21092 (Fluconazole resistant) were provided by the RMIT microbial culture collection. Bacterial strains were stored in 50% glycerol at −20 and −80°C.
(§2) Minimal inhibitory concentration (MIC) assays were performed following a standard broth dilution procedure ([Wiegand et al., 2008]) in which bacteria were grown in MHB and fungal in SB overnight. The overnight bacterial suspension was adjusted to 10^6 CFU/ml in broth according to MacFarlane standard. Bacterial solutions were mixed in 96-well plates with the peptide solution to reach final concentrations of peptides ranging from 1,082 to 2 μM, including inhibition control (Indolicidin), growth control, and sterility control. Within each MIC experiment, each peptide was tested in triplicate across this concentration range and repeated on 3 independent days. Media and glassware were sterilized at 120°C for 1 h with an autoclave prior to all bioassays.

[2] = tested on: E. coli NCTC 10418; assay type: cell-based
Description: as §1, §2

[3] = tested on: Candida auris DSM 21092 (Fluconazole resistant); assay type: cell-based
Description: as §1, §2

[4] = tested on: P. aeruginosa ATCC 9721; assay type: cell-based
Description: as §1, §2

[5] = tested on: S. aureus ATCC BAA-1756 (methicillin resistant); assay type: cell-based
Description: as §1, §2

[6] = tested on: E. faecalis ATCC 19433; assay type: cell-based
Description: as §1, §2

[7] = tested on: S. aureus ATCC 25923; assay type: cell-based; conditions: ATCC 25923, 1 h
Description: as §1, §2

[8] = tested on: Streptococcus pneumoniae ATCC 49619; assay type: cell-based
Description: as §1, §2

[9] = Peptide assembly state from ATR-FTIR arginine side-chain vibrations; assay type: physicochemical; conditions: ATR-FTIR 25°C
Method: (§3) The peptides were prepared by mixing the lyophilized peptide directly with type 1 water, vortexed for a few seconds to obtain an isotropic solution and stored at 4°C–5°C in between experiments.
Data was recorded at 25°C using a Tensor-II spectrometer (Bruker, Germany) equipped with a Bio-ATR attachment (Bruker, Germany) by directly depositing the samples on the ATR crystal as previous reported by our group ([Dharmadana et al., 2019]). Spectra were collected over 32 scans within 4,000–400 cm^−1 wavenumber range at a resolution of 4 cm^−1. Associated water signal was subtracted from the resulting spectra, and secondary derivatives were calculated using OPUS software (Bruker, Germany).

[10] = tested on: C. auris Fluconazole resistant; assay: Fluorescence assisted cell sorting (FACS) live/dead assay; assay type: cell-based; conditions: overnight 36-37°C, SYTO 9/propidium iodide
Method: (§4) FACS assay was performed following the LIVE/DEAD™ BacLight™ Bacterial Viability Kit (L7012) instructions and stablished procedures ([Berney et al., 2007]; [Robertson et al., 2019]), in which bacteria were grown in Mueller Hinton Broth and fungal in Sabouraud Broth overnight to a late–log phase. Then, 900 μl of the cell suspension was added to 100 μl of five different concentrations of peptides solution and incubated overnight at 36°C–37°C. On the next day, the suspension was centrifuged at 10,000 × g for 10 min and the supernatant fraction was removed from the samples. The pellets were resuspended with 1 ml of PBS buffer and incubated at room temperature for 1 h, mixing every 15 min. The sample was centrifuged at 10,000 × g for 10 min, the supernatant removed followed by the resuspension of the pellet in 1 ml of PBS. The washing steps were repeated twice. To perform the staining of the cells, equal volumes of SYTO® 9 and propidium iodide were combined in a microfuge tube and 3 µl of the dye mixture was added to each microbial suspension. The sample was incubated at room temperature in the dark for 15 min. The evaluation of cell viability was performed through the calculation of the red to green fluorescence ratio to determine the proportion of live cells in a sample.

[11] = tested on: S. aureus Methicillin resistant; assay: as above; assay type: cell-based; conditions: overnight 36-37°C, SYTO 9/propidium iodide
Method: as §4

[12] = tested on: E. coli; assay: as above; assay type: cell-based; conditions: overnight 36-37°C, SYTO 9/propidium iodide
Method: as §4

[13] = Self-assembly and hydrogelation in water (electron microscopy, rheology, observation); assay type: physicochemical
Method: as §3
Carbon-coated grids (EMSCF200H-CU-TH, ProSciTech) were glow discharged to render them hydrophilic. A 1–5 μl aliquot of sample was applied to an upturned grid held in anti-capillary forceps, over moist filter paper, and left for 5 min over moistened filter paper to adsorb. Excess liquid was then removed with filter paper, the grid was then inverted onto a drop of 2% PTA stain, pH 6.9 on Parafilm, for 1 min. […] Images were recorded using a FEI Eagle 4 k × 4 k CCD camera and AnalySIS v3.2 camera control software (Olympus).
A laboratory-built humidity-controlled vitrification system was used to prepare the samples for Cryo-TEM. […] Images were recorded using a FEI Eagle 4 k × 4 k CCD camera at a range of magnifications using AnalySIS v3.2 camera control software (Olympus).
Rheology was undertaken on a calibrated rheometer (Anton Paar MCR 301, Anton Paar Pty. Ltd. Austria) fitted with a 15 mm cone plate fixture with a cone angle of 1° (CP15-1, Anton Paar Pty. Ltd. Austria). […] All measurements were carried out in triplicate with the mean and standard deviation shown, calculated and plotted in GraphPad Prism.

[14] = tested on: E. faecium; assay type: cell-based
Method: as §2

[15] = assay type: physicochemical
Method: as §3

[16] = broth dilution in Sabouraud broth, peptide 1,082 to 2 μM, triplicate on 3 independent days
[17] = broth dilution in MHB, 10^6 CFU/ml, peptide 1,082 to 2 μM, triplicate on 3 independent days

- MIC C. albicans ([1]; ATCC 10231, 1 h): 78 µM
- MIC E. coli ([2]; NCTC 10418, 1 h): 313 µM
- MIC C. auris Fluconazole resistant ([3]; DSM 21092, 1 h): 313 µM
- MIC P. aeruginosa ([4]; ATCC 9721, 1 h): 313 µM
Compound: WPWRR-NH2 [Indolicidin C-terminus, WPWRR-NH2, reference compound]

- MIC C. albicans ([1]; ATCC 10231, 1 h): 15 µM (≈ 15.3 µg/mL)
- MIC S. aureus Methicillin resistant ([5]; ATCC BAA-1756, 1 h): 61 µM (≈ 62.3 µg/mL)
- MIC E. faecalis ([6]; ATCC 19433, 1 h): 61 µM (≈ 62.3 µg/mL)
- MIC E. coli ([2]; NCTC 10418, 1 h): 122 µM (≈ 125 µg/mL)
- MIC C. auris Fluconazole resistant ([3]; DSM 21092, 1 h): 31 µM (≈ 31.7 µg/mL)
- MIC P. aeruginosa ([4]; ATCC 9721, 1 h): 61 µM (≈ 62.3 µg/mL)
- MIC S. aureus [7]: 31 µM (≈ 31.7 µg/mL)
- MIC S. pneumoniae ([8]; ATCC 49619, 1 h): 31 µM (≈ 31.7 µg/mL)
- Interpretation for peptide assembly according to MD ([9]; 1 % wt in water, 30 days after mixing): monomer/globular oligomer
- Interpretation for peptide assembly according to MD ([9]; 1 % wt in water, time after mixing 0): monomer/globular oligomer
- Interpretation for peptide assembly according to MD ([9]; 5 % wt in water, 30 days after mixing): monomer/globular oligomer
- Interpretation for peptide assembly according to MD ([9]; 5 % wt in water, time after mixing 0): monomer/globular oligomer
- Interpretation for peptide assembly according to MD ([9]; 10 % wt in water, 30 days after mixing): monomer/globular oligomer
- Interpretation for peptide assembly according to MD ([9]; 10 % wt in water, time after mixing 0): monomer/globular oligomer
- Nanostructures imaged by electron microscopy ([13]; 10% wt in water, 1 month incubation, in coexistence with globular oligomers): nanoribbons
- State of aqueous samples (rheology summary) ([13]; peptide in water, oscillatory rheology G'/G''): colloidal solutions of low viscosity
- MIC E. faecium ([14]; 1 h): 61 µM (≈ 62.3 µg/mL)
Compound: N=C(N)NCCC[C@H](NC(=O)[C@H](CCCNC(=N)N)NC(=O)[C@H](Cc1c[nH]c2ccccc12)NC(=O)[C@@H]1CCCN1C(=O)[C@H](Cc1c[nH]c2ccccc12)NC(=O)OCC1c2ccccc2-c2ccccc21)C(N)=O [P-Priscilicidin, Fmoc-WPWRR-NH2] (Fmoc-WPWRR-NH2)
- Dead % ([10]; 12 µM peptide): 33%
- Live % ([10]; 12 µM peptide): 67%
- Dead % ([10]; 24 µM peptide): 95%
- Live % ([10]; 24 µM peptide): 4%
- Dead % ([10]; 49 µM peptide): 98%
- Live % ([10]; 49 µM peptide): 2%
- Dead % ([10]; 98 µM peptide): 98%
- Live % ([10]; 98 µM peptide): 1%
- Dead % ([10]; 196 µM peptide): 98%
- Live % ([10]; 196 µM peptide): 2%
- Dead % ([11]; 12 µM peptide): 5%
- Live % ([11]; 12 µM peptide): 95%
- Dead % ([11]; 24 µM peptide): 7%
- Live % ([11]; 24 µM peptide): 95%
- Dead % ([11]; 98 µM peptide): 83%
- Live % ([11]; 98 µM peptide): 19%
- Dead % ([11]; 196 µM peptide): 97%
- Live % ([11]; 196 µM peptide): 4%
- FACS minimum concentration showing over 90% dead microbes, S. aureus Methicillin resistant [11]: 196 µM
- Dead % ([12]; 12 µM peptide): 2%
- Live % ([12]; 12 µM peptide): 93%
- Dead % ([12]; 24 µM peptide): 33%
- Live % ([12]; 24 µM peptide): 57%
- Dead % ([12]; 49 µM peptide): 48%
- Live % ([12]; 49 µM peptide): 33%
- Dead % ([12]; 98 µM peptide): 44%
- Live % ([12]; 98 µM peptide): 35%
- Dead % ([12]; 196 µM peptide): 89%
- Live % ([12]; 196 µM peptide): 2%
- FACS minimum concentration showing over 90% dead microbes, E. coli [12]: 196 µM

- MIC C. albicans ([1]; ATCC 10231, 1 h): 8 µM (≈ 7.39 µg/mL)
- MIC S. aureus Methicillin resistant ([5]; ATCC BAA-1756, 1 h): 34 µM (≈ 31.4 µg/mL)
- MIC E. faecalis ([6]; ATCC 19433, 1 h): 68 µM (≈ 62.8 µg/mL)
- MIC E. coli ([2]; NCTC 10418, 1 h): 68 µM (≈ 62.8 µg/mL)
- MIC C. auris Fluconazole resistant ([3]; DSM 21092, 1 h): 17 µM (≈ 15.7 µg/mL)
- MIC P. aeruginosa ([4]; ATCC 9721, 1 h): 68 µM (≈ 62.8 µg/mL)
- MIC S. aureus [7]: 17 µM (≈ 15.7 µg/mL)
- MIC S. pneumoniae ([8]; ATCC 49619, 1 h): 17 µM (≈ 15.7 µg/mL)
- Concentration easily solubilised in pure water [15]: at least 10 % w/w
- MIC E. faecium ([14]; 1 h): 34 µM (≈ 31.4 µg/mL)
Compound: N=C(N)NCCC[C@H](NC(=O)[C@H](CCCNC(=N)N)NC(=O)[C@H](Cc1c[nH]c2ccccc12)NC(=O)[C@H](Cc1c[nH]c2ccccc12)NC(=O)OCC1c2ccccc2-c2ccccc21)C(N)=O [Priscilicidin, Fmoc-WWRR-NH2] (Fmoc-WWRR-NH2)

Compound: CC[C@H](C)[C@H](N)C(=O)N[C@@H](CC(C)C)C(=O)N1CCC[C@H]1C(=O)N[C@@H](Cc1c[nH]c2ccccc12)C(=O)N[C@@H](CCCCN)C(=O)N[C@@H](Cc1c[nH]c2ccccc12)C(=O)N1CCC[C@H]1C(=O)N[C@@H](Cc1c[nH]c2ccccc12)C(=O)N[C@@H](Cc1c[nH]c2ccccc12)C(=O)N1CCC[C@H]1C(=O)N[C@@H](Cc1c[nH]c2ccccc12)C(=O)N[C@@H](CCCNC(=N)N)C(=O)N[C@@H](CCCNC(=N)N)C(N)=O [Indolicidin, reference compound]
- MIC C. albicans [1, 16]: 4 µM (≈ 7.63 µg/mL)
- MIC S. aureus Methicillin resistant ([5]; second value of cell S. aureus/Methicillin resistant, broth dilution in MHB, 10^6 CFU/ml, peptide 1,082 to 2 μM, triplicate on 3 independent days): 33 µM (≈ 62.9 µg/mL)
- MIC E. faecalis [6, 17]: 33 µM (≈ 62.9 µg/mL)
- MIC E. coli [2, 17]: 16 µM (≈ 30.5 µg/mL)
- MIC C. auris Fluconazole resistant [3, 16]: 16 µM (≈ 30.5 µg/mL)
- MIC P. aeruginosa [4, 17]: 33 µM (≈ 62.9 µg/mL)
- MIC S. pneumoniae [8, 17]: 16 µM (≈ 30.5 µg/mL)
- MIC E. faecium [14, 17]: 33 µM (≈ 62.9 µg/mL)
